Literature values in patent US20020177624A1, “Acetate-lactate buffering vaginal gel and for method of making same and treating bacterial vaginosis” (priority 2001, published 2002).

System: bacterial vaginosis
Details: oral administration

Structure (SMILES): Cc1ncc([N+](=O)[O-])n1CCO [metronidazole]
- success of treatment of bacterial vaginosis: often highly successful
